ChEMBL document CHEMBL1125386, “Small atrial natriuretic peptide analogues: design, synthesis, and structural requirements for guanylate cyclase activation” (J Med Chem, 1992)

System: Atrial natriuretic peptide receptor 1 (Oryctolagus cuniculus)
Assay: Binding affinity towards the low-affinity site atrionatriuretic peptide receptor 1 of rabbit adrenal membrane

| Structure (SMILES) | KL |
| --- | --- |
| CC[C@H](C)[C@@H]1NC(=O)[C@@H](CCCN=C(N)N)NC(=O)CNC(=O)CNC(=O)[C@H](Cc2ccccc2)NC(=O)[C@H](NC(=O)[C@H](CO)NC(=O)[C@@H](N)CO)CSSC[C@H](C(=O)N[C@H](Cc2ccccc2)C(=O)N[C@H](CCCN=C(N)N)C(=O)O)NC(=O)[C@@H]([C@@H](C)CC)NC(=O)[C@H](CCCN=C(N)N)NC(=O)[C@@H](CC(=O)O)NC1=O | 2000 nM |
| CC[C@H](C)[C@@H]1NC(=O)[C@@H](CCCN=C(N)N)NC(=O)CNC(=O)CNC(=O)[C@@H](C2CCCCC2)NC(=O)CCSSC[C@H](C(N)=O)NC(=O)[C@@H](CCCN=C(N)N)NC(=O)[C@H](Cc2ccccc2)NC(=O)[C@@H]([C@@H](C)CC)NC(=O)[C@H](CCCN=C(N)N)NC(=O)[C@@H](CCC(=O)O)NC1=O | 430 nM |
| CC[C@H](C)[C@@H]1NC(=O)[C@@H](CCCN=C(N)N)NC(=O)CNC(=O)CNC(=O)[C@@H](Cc2ccccc2)NC(=O)CNC(=O)[C@H](NC(=O)[C@H](CO)NC(=O)[C@@H](N)CO)CSSC[C@H](C(=O)N2CCC[C@@H]2C(=O)N[C@H](CCCN=C(N)N)C(=O)O)NC(=O)[C@@H]([C@@H](C)CC)NC(=O)[C@H](CCCN=C(N)N)NC(=O)[C@@H](CC(=O)O)NC1=O | 440 nM |
| CC[C@H](C)[C@@H]1NC(=O)[C@@H](CCCN=C(N)N)NC(=O)[C@H](CC(=O)O)NC(=O)[C@@H]([C@@H](C)CC)NC(=O)[C@H](CCCN=C(N)N)NC(=O)CNC(=O)CNC(=O)[C@H](Cc2ccccc2)NC(=O)CN(C)C(=O)[C@@H](NC(=O)[C@@H](CO)NC(=O)[C@H](N)CO)CSSC[C@@H](C(=O)N[C@H](Cc2ccccc2)C(=O)N[C@H](CCCN=C(N)N)C(=O)O)NC1=O | 410 nM |

More lines, now with the values ahead:

| KL | Structure (SMILES) |
| --- | --- |
| 280 nM | CC[C@H](C)[C@@H]1NC(=O)[C@@H](CCCN=C(N)N)NC(=O)CNC(=O)CNC(=O)[C@@H](Cc2ccccc2)NC(=O)C(C)NC(=O)[C@H](NC(=O)CCCCN)CSSC[C@H](C(=O)N[C@H](Cc2ccccc2)C(=O)N[C@H](CCCN=C(N)N)C(=O)O)NC(=O)[C@@H]([C@@H](C)CC)NC(=O)[C@H](CCCN=C(N)N)NC(=O)[C@@H](CC(=O)O)NC1=O (stereo in doubt) |
| 2700 nM | CC[C@H](C)[C@@H]1NC(=O)[C@@H](CCCN=C(N)N)NC(=O)CNC(=O)CNC(=O)[C@@H](Cc2ccccc2)NC(=O)C(C)NC(=O)[C@H](N)CSSC[C@H](C(=O)N[C@H](Cc2ccccc2)C(=O)N[C@H](CCCN=C(N)N)C(=O)O)NC(=O)[C@@H]([C@@H](C)CC)NC(=O)[C@H](CCCN=C(N)N)NC(=O)[C@@H](CC(=O)O)NC1=O (stereo in doubt) |
| 1700 nM | CC[C@H](C)[C@@H]1NC(=O)[C@@H](CCCN=C(N)N)NC(=O)CNC(=O)CNC(=O)[C@@H](Cc2cc(I)c(O)c(I)c2)NC(=O)[C@H](NC(=O)[C@H](N)CCCN=C(N)N)CSSC[C@H](C(N)=O)NC(=O)[C@@H](CCCN=C(N)N)NC(=O)[C@H](Cc2ccccc2)NC(=O)[C@@H]([C@@H](C)CC)NC(=O)[C@H](CCCN=C(N)N)NC(=O)[C@@H](CC(=O)O)NC1=O |
| 790 nM | CC[C@H](C)[C@@H]1NC(=O)[C@@H](CCCN=C(N)N)NC(=O)CNC(=O)CNC(=O)[C@@H](Cc2ccccc2)NC(=O)C(C)NC(=O)[C@H](NC(=O)CCCCCCCN)CSSC[C@H](C(=O)N[C@H](Cc2ccccc2)C(=O)N[C@H](CCCN=C(N)N)C(=O)O)NC(=O)[C@@H]([C@@H](C)CC)NC(=O)[C@H](CCCN=C(N)N)NC(=O)[C@@H](CC(=O)O)NC1=O (stereo in doubt) |

System: not listed separately
Assay: Binding affinity towards low-affinity site of Atrial natriuretic peptide receptor 1 of rabbit adrenal membrane
Format: tissue-based

| Structure (SMILES) | KL |
| --- | --- |
| CC[C@H](C)[C@@H]1NC(=O)[C@@H](CCCN=C(N)N)NC(=O)CNC(=O)CNC(=O)[C@@H](C2CCCCC2)NC(=O)CCSSC[C@H](C(N)=O)NC(=O)[C@@H](CCCN=C(N)N)NC(=O)[C@H](Cc2ccccc2)NC(=O)[C@@H]([C@@H](C)CC)NC(=O)[C@H](CCCN=C(N)N)NC(=O)[C@@H](CC(=O)O)NC1=O | 300 nM |
| CC[C@H](C)[C@@H]1NC(=O)[C@@H](CCCN=C(N)N)NC(=O)CNC(=O)CNC(=O)[C@@H](Cc2ccccc2)NC(=O)CNC(=O)[C@H](NC(=O)[C@H](CO)NC(=O)[C@@H](N)CO)CSSC[C@H](C(=O)N[C@H](Cc2ccccc2)C(=O)N[C@H](CCCN=C(N)N)C(=O)O)NC(=O)[C@@H]([C@@H](C)CC)NC(=O)[C@H](CCCN=C(N)N)NC(=O)[C@@H](CC(=O)OC)NC1=O | 1400 nM |
| CC[C@H](C)[C@@H]1NC(=O)[C@@H](CCCN=C(N)N)NC(=O)CNC(=O)CNC(=O)[C@@H](Cc2ccccc2)NC(=O)CNC(=O)[C@H](NC(=O)[C@H](CO)NC(=O)[C@@H](N)CO)CSSC[C@H](C(=O)N[C@@H](Cc2ccccc2)C(=O)N[C@H](CCCN=C(N)N)C(=O)O)NC(=O)[C@@H]([C@@H](C)CC)NC(=O)[C@H](CCCN=C(N)N)NC(=O)[C@@H](CC(=O)O)NC1=O | 780 nM |

The next lines start with the values.

| KL | Structure (SMILES) |
| --- | --- |
| 290 nM | CC[C@H](C)[C@@H]1NC(=O)[C@@H](CCCN=C(N)N)NC(=O)CNC(=O)CNC(=O)[C@@H](Cc2ccccc2)N(C)C(=O)C(C)NC(=O)[C@H](NC(=O)[C@H](CO)NC(=O)[C@@H](N)CO)CSSC[C@H](C(=O)N[C@H](Cc2ccccc2)C(=O)N[C@H](CCCN=C(N)N)C(=O)O)NC(=O)[C@@H]([C@@H](C)CC)NC(=O)[C@H](CCCN=C(N)N)NC(=O)[C@@H](CC(=O)O)NC1=O (stereo in doubt) |
| 740 nM | CC[C@H](C)[C@@H]1NC(=O)[C@@H](CCCN=C(N)N)NC(=O)CNC(=O)CNC(=O)[C@@H](Cc2ccccc2)NC(=O)[C@@H](C)NC(=O)[C@H](NC(=O)[C@H](CO)NC(=O)[C@@H](N)CO)CSSC[C@H](C(=O)N[C@H](Cc2ccccc2)C(=O)N[C@H](CCCN=C(N)N)C(=O)O)NC(=O)[C@@H]([C@@H](C)CC)NC(=O)[C@H](CCCN=C(N)N)NC(=O)CNC1=O |
| 270 nM | CC[C@H](C)[C@@H]1NC(=O)[C@@H](CCCN=C(N)N)NC(=O)CNC(=O)CNC(=O)[C@@H](C2CCCCC2)NC(=O)[C@H](NC(=O)[C@H](N)CCCN=C(N)N)CSSC[C@H](C(N)=O)NC(=O)[C@@H](CCCN=C(N)N)NC(=O)[C@@H]2Cc3ccccc3CN2C(=O)[C@@H]([C@@H](C)CC)NC(=O)[C@H](CCCN=C(N)N)NC(=O)[C@@H](CC(=O)O)NC1=O |
| 1000 nM | CC[C@H](C)[C@@H]1NC(=O)[C@@H](CCCN=C(N)N)NC(=O)CNC(=O)CNC(=O)[C@@H](Cc2ccccc2)NC(=O)[C@@H](C)NC(=O)[C@H](NC(=O)[C@H](CO)NC(=O)[C@@H](N)CO)CSSC[C@H](C(=O)N[C@H](Cc2ccccc2)C(=O)N[C@H](CCCN=C(N)N)C(=O)O)NC(=O)[C@@H]([C@@H](C)CC)NC(=O)[C@H](CCCN=C(N)N)NC(=O)[C@@H](C)NC1=O |
| 810 nM | CC[C@H](C)[C@@H]1NC(=O)[C@@H](CCCN=C(N)N)NC(=O)Cc2cccc(c2)NC(=O)Cc2cccc(c2)NC(=O)[C@@H](Cc2ccccc2)NC(=O)C(C)NC(=O)[C@H](NC(=O)[C@H](CO)NC(=O)[C@@H](N)CO)CSSC[C@H](C(=O)N[C@H](Cc2ccccc2)C(=O)N[C@H](CCCN=C(N)N)C(=O)O)NC(=O)[C@@H]([C@@H](C)CC)NC(=O)[C@H](CCCN=C(N)N)NC(=O)[C@@H](CC(=O)O)NC1=O (stereo in doubt) |
| 1400 nM | CC[C@H](C)[C@@H]1NC(=O)[C@@H](CCCN=C(N)N)NC(=O)Cc2ccc(cc2)NC(=O)Cc2ccc(cc2)NC(=O)[C@@H](Cc2ccccc2)NC(=O)C(C)NC(=O)[C@H](NC(=O)[C@H](CO)NC(=O)[C@@H](N)CO)CSSC[C@H](C(=O)N[C@H](Cc2ccccc2)C(=O)N[C@H](CCCN=C(N)N)C(=O)O)NC(=O)[C@@H]([C@@H](C)CC)NC(=O)[C@H](CCCN=C(N)N)NC(=O)[C@@H](CC(=O)O)NC1=O (stereo in doubt) |
